Measurements as given in US5962475A, “Substituted benzo(B)thiophene compounds having activity as selective estrogen receptor modulators” (Eli Lilly and Company, priority 1997, dated 1999).

Key:
[1] = tested on: ovariectomized (OVX) rats, uterus; test: Uterine weight in ovariectomized rats, four day oral dosing; type: in vivo, Sprague Dawley rats; conditions: for Uterine Weight (% inc. OVX): daily for 4 days, vs OVX control
Protocol: (§1) In the examples illustrating the methods, a post-menopausal model was used in which effects of different treatments upon various biological parameters were determined, including serum cholesterol concentration, uterine weight, estrogen receptor binding, uterine eosinophil peroxidase activity, MCF-7 cell proliferation, and bone density.
(§2) Seventy-five day old female Sprague Dawley rats (weight range of 200 to 225 g) were obtained from Charles River Laboratories (Portage, Mich.). The animals were either bilaterally ovariectomized (OVX) or exposed to a sham surgical procedure (Intact) at Charles River Laboratories, and then shipped after one week. Upon arrival, they were housed in metal hanging cages in groups of 3 or 4 per cage and had ad libi tum access to food (calcium content approximately 0.5%) and water for one week. Room temperature was maintained at 22.20°±1.70° C. with a minimum relative humidity of 40%. The photoperiod in the room was 12 hours light and 12 hours dark.
(§3) After a one week acclimation period (therefore, two weeks post-OVX), daily dosing with test compound was initiated. 17a-Ethynyl estradiol (EE2) (Sigma Chemical Co., St. Louis, Mo.), an orally available form of estrogen, or the test compound were given orally, unless otherwise stated, as a suspension in 1% carboxymethyl cellulose or dissolved in 20% β-cyclodextrin. Animals were dosed daily for 4 days. Following the dosing regimen, animals were weighed and anesthetized with a ketamine:xylazine (2:1, v:v) mixture. A blood sample was collected by cardiac puncture. The animals were then sacrificed by asphyxiation with CO2, the uterus was removed through a midline incision, and a wet uterine weight was determined.
(§4) Data presented in Table 1 below show comparative results among control ovariectomized rats, rats treated with EE2, and rats treated with certain compounds of the present invention. […] This uterine response to estrogen is well recognized in the art.
(§5) The data presented in Table 1 reflect the response of 5 or 6 rats per treatment.

[2] = tested on: uterine eosinophil peroxidase activity; test: Uterine eosinophil peroxidase (EPO) assay in ovariectomized rats, four day dosing; type: in vivo, Sprague Dawley rats; design: Uterine EPO (Vmax): unit not given beside the values; conditions: for Uterine EPO (Vmax): daily for 4 days
Protocol: as §1, §2, §3
Uteri were kept at 4° C. until time of enzymatic analysis. The uteri were then homogenized in 50 volumes of 50 mM Tris buffer (pH--8.0) containing 0.005% Triton X-100. Upon addition of 0.01% hydrogen peroxide and 10 mM o-phenylenediamine (final concentrations) in Tris buffer, increase in absorbance was monitored for one minute at 450 nm. The presence of eosinophils in the uterus, as measured by assay of eosinophil peroxidase activity, is an indication of estrogenic activity of a compound. The maximal velocity of a 15 second interval was determined over the initial, linear portion of the reaction curve.
As is expressed in the data below, estrogenicity also was assessed by evaluating the adverse response of eosinophil infiltration into the uterus.
as §5

serum cholesterol = test: Serum cholesterol in ovariectomized rats, four day oral dosing; type: in vivo, Sprague Dawley rats; conditions: for Serum Cholesterol (% decrease OVX): daily for 4 days, vs OVX control
Protocol: as §1, §2, §3
Blood samples were allowed to clot at room temperature for 2 hours, and serum was obtained following centrifugation for 10 minutes at 3000 rpm. Serum cholesterol was determined using a Boehringer Mannheim Diagnostics high performance cholesterol assay. Briefly the cholesterol was oxidized to cholest-4-en-3-one and hydrogen peroxide. The hydrogen peroxide was then reacted with phenol and 4-aminophenazone in the presence of peroxidase to produce a p-quinone imine dye, which was read spectrophotemetrically at 500 nm. Cholesterol concentration was then calculated against a standard curve. The entire assay was automated using a Biomek Automated Workstation.
as §4, §5

[3] = tested on: MCF-7 breast adenocarcinoma cells; test: MCF-7 proliferation assay; type: cell-based; conditions: Homo sapiens, MCF7; MCF-7 cells, tritiated thymidine pulse after 48 hours with compound; read-out: ED50 (the source's name)
Protocol: MCF-7 breast adenocarcinoma cells (ATCC HTB 22) were maintained in MEM (minimal essential medium, phenol red-free, Sigma, St. Louis, Mo.) supplemented with 10% fetal bovine serum (FBS) (V/V), L-glutamine (2 mM), sodium pyruvate (1 mM), HEPES {(N-[2-hydroxyethyl]piperazine-N'-[2-ethanesulfonic acid]10 mM}, non-essential amino acids and bovine insulin (1 μg/ml) (maintenance medium). Ten days prior to assay, MCF-7 cells were switched to maintenance medium supplemented with 10% dextran coated charcoal stripped fetal bovine serum (DCC-FBS) assay medium) in place of 10% FBS to deplete internal stores of steroids. MCF-7 cells were removed from maintenance flasks using cell dissociation medium (Ca++/Mg++ free HBSS (phenol red-free) supplemented with 10 mM HEPES and 2 mM EDTA). Cells were washed twice with assay medium and adjusted to 80,000 cells/ml. […] Serial dilutions of drugs or DMSO as a diluent control were prepared in assay medium and […] to triplicate microcultures followed by […] assay medium for a final volume of […]. After an additional 48 hours at 37° C. in a 5% CO2 humidified incubator, microcultures were pulsed with tritiated thymidine (1 uCi/well) for 4 hours. Cultures were terminated by freezing at -70° C. for 24 hours followed by thawing and harvesting of microcultures. Samples were counted by liquid scintillation.

MCF-7 Estrogen Receptor = target: T1, MCF-7 Estrogen Receptor (Homo sapiens, UniProt P03372); test: MCF-7 estrogen receptor binding assay, competition with tritiated 17β-estradiol
T1 construct: protein from MCF-7 lysates; endogenous in cells; host or cells: MCF-7 (lysate)
T1 sequence (P03372 1-595): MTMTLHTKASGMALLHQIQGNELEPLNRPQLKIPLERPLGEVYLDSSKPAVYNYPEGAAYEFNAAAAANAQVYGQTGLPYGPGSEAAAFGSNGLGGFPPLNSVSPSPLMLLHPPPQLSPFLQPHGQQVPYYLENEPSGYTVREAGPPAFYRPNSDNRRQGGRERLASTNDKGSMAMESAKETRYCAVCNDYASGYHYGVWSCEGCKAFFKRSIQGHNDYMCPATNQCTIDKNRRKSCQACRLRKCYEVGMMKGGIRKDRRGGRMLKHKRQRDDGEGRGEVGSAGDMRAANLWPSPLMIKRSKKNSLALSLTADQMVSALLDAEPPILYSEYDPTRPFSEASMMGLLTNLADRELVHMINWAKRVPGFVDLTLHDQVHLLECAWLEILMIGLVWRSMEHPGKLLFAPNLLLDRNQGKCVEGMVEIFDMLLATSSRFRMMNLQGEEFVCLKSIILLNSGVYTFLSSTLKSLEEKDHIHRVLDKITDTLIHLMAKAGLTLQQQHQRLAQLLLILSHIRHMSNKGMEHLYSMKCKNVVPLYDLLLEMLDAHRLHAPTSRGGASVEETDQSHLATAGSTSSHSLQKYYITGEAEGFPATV
Protocol: Binding was allowed to take place for 18 hours at 5-- C., followed by the addition of 0.07 mL of dextran/charcoal and centrifugation to remove non-bound radioligand. Aliquots of supernate containing bound radioligand were mixed with scintillant and counted. Relative binding affinity (RBA) was calculated as: [formula]

| Relative binding affinity (RBA) (MCF-7 Estrogen Receptor) | Compound | Uterine Weight (% inc. OVX) ([1]; 0.1 mg/kg PO) [%] | action on the uterus / uterine weight, in words ([1]; orally, 0.1 mg/Kg/day) | Uterine EPO (Vmax) ([2]; 0.1 mg/kg PO) | eosinophil infiltration into the uterus, in words ([2]; ovariectomized rats, by assay of eosinophil peroxidase activity) | Serum Cholesterol (% decrease OVX) (serum cholesterol; 0.1 mg/kg PO) [%] | serum cholesterol, in words (serum cholesterol; orally, 0.1 mg/Kg/day) | Uterine Weight (% inc. OVX) ([1]; 1 mg/kg PO) [%] | Uterine Weight (% inc. OVX) ([1]; 10 mg/kg PO) [%] | Uterine EPO (Vmax) ([2]; 1 mg/kg PO) | Uterine EPO (Vmax) ([2]; 10 mg/kg PO) | Serum Cholesterol (% decrease OVX) (serum cholesterol; 1 mg/kg PO) [%] | Serum Cholesterol (% decrease OVX) (serum cholesterol; 10 mg/kg PO) [%] | IC50 [3] [nM] |
| --- | --- | --- | --- | --- | --- | --- | --- | --- | --- | --- | --- | --- | --- | --- |
| – | C#C[C@]1(O)CC[C@H]2[C@@H]3CCc4cc(O)ccc4[C@H]3CC[C@@]21C [Ethynyl estradiol, 17a-Ethynyl estradiol, reference compound] | 144.1 | marked stimulatory action on the uterus | 123.9 | substantial, expected increase in eosinophil infiltration | 80.3 | decrease in serum cholesterol | – | – | – | – | – | – | – |
| – | O=C(c1ccc(NCCN2CCCCC2)cc1)c1c(-c2ccc(O)cc2)sc2cc(O)ccc12 [Example 2] | -5.0 | – | 1.8 | – | -0.5 | – | 15.8 | 35.6 | 2.4 | 2.1 | 13.6 | 42.4 | 2 |
| 0.19 | CN(CCN1CCCCC1)c1ccc(C(=O)c2c(-c3ccc(O)cc3)sc3cc(O)ccc23)cc1 [Example 6, 6-hydroxy-2-(4-hydroxyphenyl)-3-[4-(N-methyl-N-2-(piperidin-1-yl)ethylamino)benzoyl]-benzo[b]thiophene] | 17.1 | – | 4.5 | – | 4.7 | – | 45.4 | 43.0 | 3.3 | 6.0 | 42.0 | 65.1 | 10 |
| – | O=C(c1ccc(SCCN2CCCCC2)cc1)c1c(-c2ccc(O)cc2)sc2cc(O)ccc12 [Example 4, 6-hydroxy-2-(4-hydroxyphenyl)-3-[4-(2-(piperidin-1-yl)ethylthio)benzoyl]-benzo[b]thiophene] | 3.5 | – | 3.3 | – | -16.6 | – | 23.1 | 16.7 | 1.2 | 1.8 | 37.5 | 47.5 | 0.9 |
| – | O=C(c1ccc(S(=O)(=O)CCN2CCCCC2)cc1)c1c(-c2ccc(O)cc2)sc2cc(O)ccc12 [Example 8, 6-hydroxy-2-(4-hydroxyphenyl)-3-[4-(2-(piperidin-1-yl)ethylsulfonyl)benzoyl]benzo[b]thiophene] | 16.2 | – | 4.8 | – | -23.3 | – | 66.9 | 75.0 | 13.5 | 23.1 | 17.2 | 62.3 | 30 |
| < 0.002 | COc1ccc(-c2sc3cc(OC)ccc3c2C(=O)c2ccc(S(=O)(=O)CCN3CCCCC3)cc2)cc1 [Example 7, 6-methoxy-2-(4-methoxyphenyl)-3-[4-(2-(piperidin-1-yl)ethylsulfonyl)benzoyl]benzo[b]thiophene] | 26.4 | – | 7.5 | – | -4.4 | – | 18.6 | 48.4 | 4.8 | 8.4 | 12.0 | 28.7 | 1000 |
